Assay results from patent EP0321368A1, “Heterocyclic N-carbamoyl, N-thiocarbamoyl or N-amidino-aminomalonyl or -aminosuccinyl amide derivatives as sweetening agents” (NOFRE, Claude, priority 1987, dated 1989).
In brackets after ≈: the same amount, converted by molar mass.

Key:
[1] = Solubility in water at pH 3 (phosphate buffer) near 0 °C, saturated filtrate assayed by HPLC; assay type: physicochemical; settings: for solubility at 1 h: aqueous buffer, pH 3 (phosphate buffer), 0° C, read-out: solubilité; for solubilité, fois plus élevée que celle de l'analogue carbocyclique 4-cyanophényle: ratio to exemple 4 of EP-B-0107597, pH 3, 0° C
Protocol: La solubilité a été mesurée de manière suivante. On met en suspension dans l'eau à pH 3 (tampon phosphate) et à température voisine de 0° C (ce qui correspond aux conditions de préparation et de stockage des boissons gazeuses) un excès du composé dont veut déterminer la solubilité. On soumet alors la suspension, toujours dans un bain de glace, à l'action des ultrasons pendant 60 min, puis on filtre (sur filtre Millipore Millex-HV 0,45 micromètre). Le composé, qui se trouve ainsi dissous à saturation dans le filtrat, est dosé par chromatographie liquide haute performance (HPLC) par rapport à une solution de référence de concentration connue.

goûteurs expérimentés = experiment: Sweetening power judged by a panel of eight experienced tasters against a sucrose reference solution; assay type: in vivo; settings: for pouvoir édulcorant: weight basis
Text: Le pouvoir édulcorant des composés ainsi préparés a été évalué par un groupe de huit goûteurs expérimentés. Pour cela, les composés, en solution aqueuse à des concentrations variables, sont comparés, sur le plan gustatif, à une solution témoin de saccharose à 2 % et dans certains cas à 5 % et 10 ^o/o, c'est-à-dire à des concentrations correspondant à celles utilisées lors d'un usage courant. Le pouvoir sucrant des édulcorants de synthèse varie en effet suivant la concentration de la solution de saccharose utilisée comme référence. Le pouvoir édulcorant du composé testé par rapport au saccharose correspond alors au rapport pondéral qui existe entre le composé et le saccharose à égale intensité édulcorante, c'est-à-dire quand les saveurs sucrées de la solution du composé testé et de la solution témoin de saccharose sont considérées, par une majorité de goûteurs, avoir la meme intensité édulcorante.

[2] = compared with a 2 % sucrose solution

Row | Compound | pouvoir édulcorant (goûteurs expérimentés; [2]) | also measured
1 | COC(=O)[C@H](Cc1ccccc1)NC(=O)[C@H](CC(=O)O)NC(=O)Nc1ccc(C#N)cc1 [exemple 4 du brevet EP-B-0107597, reference compound] | – | solubility at 1 h [1]: ~20 µg/mL (≈ 45.6 µM)
2 | COC(=O)[C@H](Cc1ccccc1)NC(=O)[C@H](CC(=O)O)NC(=O)Nc1ccc2nonc2c1 [Exemple 8, N-(5-benzofurazanylcarbamoyl)-L-aspartyl-L-phénylalanine méthyl ester] | ~5 000 fois celui du saccharose | solubility at 1 h [1]: ~180 µg/mL (≈ 395 µM); solubilité, fois plus élevée que celle de l'analogue carbocyclique 4-cyanophényle [1]: ~9 fois
3 | COC(=O)[C@H](Cc1ccccc1)NC(=O)[C@H](CC(=O)O)NC(=O)Nc1ccc2c(c1)OCO2 [Exemple 11, N-(3,4-méthylènedioxyphénylcarbamoyl)-L-aspartyl-L-phénylalanine méthyl ester] | ~50 fois celui du saccharose | –
4 | COC(=O)[C@H](Cc1ccccc1)NC(=O)[C@H](CC(=O)O)NC(=S)Nc1cccnc1 [Exemple 2, N-(3-pyridylthiocarbamoyl)-L-aspartyl-L-phénylalanine méthyl ester] | ~1 000 fois celui du saccharose | –
5 | COC(=O)[C@H](Cc1ccccc1)NC(=O)[C@H](CC(=O)O)NC(=S)Nc1cnc(C#N)nc1 [Exemple 7, N-(2-cyano-5-pyrimidinylthiocarbamoyl)-L-aspartyl-L-phénylalanine méthyl ester] | ~50 000 fois celui du saccharose | –
6 | COC(=O)[C@H](Cc1ccccc1)NC(=O)[C@H](CC(=O)O)NC(=O)Nc1ccc2c(c1)no[n+]2[O-] [Exemple 9, N-(1-oxyde-5-benzofurazanylcarbamoyl)-L-aspartyl-L-phénylalanine méthyl ester] | ~2 000 fois celui du saccharose | –
7 | COC(=O)[C@H](Cc1ccccc1)NC(=O)[C@H](CC(=O)O)NC(=O)Nc1ccc(C#N)nc1 [Exemple 4, N-(2-cyano-5-pyridylcarbamoyl)-L-aspartyl-L-phénylalanine méthyl ester] | ~8 000 fois celui du saccharose | fois plus sucré que le saccharose (goûteurs expérimentés; concentration of the sucrose reference not given): 8 000 fois; pouvoir édulcorant (goûteurs expérimentés; compared with a 5 % sucrose solution): ~6 000 fois; pouvoir édulcorant (goûteurs expérimentés; compared with a 10 % sucrose solution): ~4 000 fois; solubility at 1 h [1]: ~70 µg/mL (≈ 159 µM); solubilité, fois plus élevée que celle de l'analogue carbocyclique 4-cyanophényle [1]: ~3,5 fois
8 | N#Cc1ccc(NC(=O)N[C@@H](CC(=O)O)C(=O)NC(c2ccccc2)c2ccco2)cn1 (stereo partly drawn) [Exemple 5, acide N-(2-cyano-5-pyridylcarbamoyl)-L-aspartique N-[(RS)-alpha-(2-furyl)benzyl] alpha-monoamide] | ~700 fois celui du saccharose | –
9 | COC(=O)[C@H](Cc1ccccc1)NC(=O)[C@H](CC(=O)O)NC(=O)Nc1ccc(Cl)nc1 [Exemple 3, N-(2-chloro-5-pyridylcarbamoyl)-L-aspartyl-L-phénylalanine méthyl ester] | ~500 fois celui du saccharose | –
10 | COC(=O)[C@H](Cc1ccccc1)NC(=O)[C@H](CC(=O)O)NC(=O)Nc1ccc2nsnc2c1 [Exemple 10, N-(5-benzothiofurazanylcarbamoyl)-L-aspartyl-L-phénylalanine méthyl ester] | ~500 fois celui du saccharose | –
11 | COC(=O)[C@H](Cc1ccccc1)NC(=O)[C@H](CC(=O)O)NC(=O)Nc1cccnc1 [Exemple 1, N-(3-pyridylcarbamoyl)-L-aspartyl-L-phénylalanine méthyl ester] | ~100 fois celui du saccharose | –
12 | COC(=O)[C@H](Cc1ccccc1)NC(=O)[C@H](CC(=O)O)NC(=S)Nc1ccc(OC)nc1 [Exemple 6, N-(2-méthoxy-5-pyridylthiocarbamoyl)-L-aspartyl-L-phénylalanine méthyl ester] | ~1 400 fois celui du saccharose | –
